According to US9409952B2, “Peptide-compound cyclization method” (Chugai Seiyaku Kabushiki Kaisha, priority 2011, dated 2016):
Where two headings read alike, the source gives them in different places. Starred links: 1 amine or outer side, 2 acyl side, 3 side chain; linkers in the order of their positions; H or OH if unused. Positions of bridges follow the written chain, without caps; N, C: chain ends. Non-standard residues stand in square brackets, D forms with d. Residues, ends and D or L forms follow the SMILES beside them. *: point of attachment. Phe(4-CF3) = N[C@@H](Cc1ccc(C(F)(F)F)cc1)C(=O)O; NMePhe(3-Cl) = CN[C@@H](Cc1cccc(Cl)c1)C(=O)O; NMeF = CN[C@@H](Cc1ccccc1)C(=O)O; NMeGABA = CN(CCCC(=O)[*:2])[*:1]; NMeI = CC[C@H](C)[C@H](NC)C(=O)O; NMeβAla = CN(CCC(=O)[*:2])[*:1]; NMeL = CN[C@@H](CC(C)C)C(=O)O; NMeV = CN[C@H](C(=O)O)C(C)C; NMeA = CN[C@@H](C)C(=O)O; Piperidide = C1CCN(*)CC1; dNMeA = CN[C@H](C)C(=O)O; β3hA = C[C@H](N)CC(=O)O; Sar = CNCC(=O)O; tBu = CC(C)(C)*

Assays:
[1] = PAMPA (parallel artificial membrane permeability assay); assay type: in vitro ADME; settings: for Papp at 18 hours, 50 µM: PAMPA
Procedure, shortened: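 Artificial membrane was 10% (w/v) egg lecithin plus 0.5% (w/v) cholesterol in dodecane on a PVDF filter. A 10 mM DMSO stock was added at 0.5% (v/v) to donor buffer (50 mM MOPSO, pH 6.5, 5.0% glycocholic acid). After 18 h at 37 °C, LC/MS or LC/UV gave donor and acceptor levels for Pe.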

[2] = Metabolic stability in human hepatic microsome; assay type: in vitro ADME; settings: microsomes
[3] = membrane permeation rate (Pe), 50 mM MOPSO buffer pH 6.5 with 5.0% glycocholic acid, 37° C., 18 hours, read-out: iPAMPA Pe
[4] = pH 7.4, human hepatic microsome, NADPH(+), read-out: CL NADPH(+)

| Compound | Papp at 18 hours, 50 µM [1, 3] [×10⁻⁶ cm/s] | microsomal CLint at 1 uM [2, 4] [µL/min/mg] | Papp at 18 hours, 50 µM ([1]; pH 6.5) [×10⁻⁶ cm/s] | microsomal CLint at 1 uM ([2]; human, pH 7.4, CL NADPH(+)) [µL/min/mg] | iPAMPA Pe ([1]; membrane permeation rate (Pe), 50 mM MOPSO buffer pH 6.5 with 5.0% glycocholic acid, 37° C., 18 hours) |
| --- | --- | --- | --- | --- | --- |
| CC(C)C[C@H]1C(=O)N(C)[C@@H](C)C(=O)N[C@@H]([C@@H](C)O)C(=O)N(C)[C@@H](C)C(=O)N(C)[C@@H](Cc2ccccc2)C(=O)N[C@@H](Cc2ccccc2)C(=O)N[C@H](C(=O)N(C)[C@@H](Cc2ccccc2)C(=O)N[C@@H](C)C(=O)N2CCCCC2)CC(=O)N(C)CCC(=O)N(C)[C@@H](C)C(=O)N[C@@H](C)C(=O)N(C)CC(=O)N1C [DP-361] ([NMeβAla][NMeA]A[Sar][NMeL][NMeA]T[NMeA][NMeF]FD[NMeF]A-Piperidide; lactam N-11) | 1.5 | 9 |  |  |  |
| CC[C@H](C)[C@@H]1NC(=O)[C@H](C(C)C)N(C)C(=O)[C@H](CC(C)C)N(C)C(=O)[C@H](C)N(C)C(=O)[C@H]([C@@H](C)O)NC(=O)[C@H](Cc2ccccc2)N(C)C(=O)CCN(C)C(=O)C[C@@H](C(=O)N(C)[C@@H](Cc2ccccc2)C(=O)N(C)[C@@H](Cc2ccccc2)C(=O)N[C@@H](C)C(=O)N2CCCCC2)NC(=O)[C@H](C)N(C)C(=O)[C@H](CC(C)C)N(C)C1=O [DP-297] ([NMeβAla][NMeF]T[NMeA][NMeL][NMeV]I[NMeL][NMeA]D[NMeF][NMeF]A-Piperidide; lactam N-10) |  |  | 19 | 78 |  |
| CC[C@H](C)[C@@H]1NC(=O)[C@H](C)N(C)C(=O)[C@H]([C@@H](C)O)NC(=O)[C@H](CC(C)C)N(C)C(=O)[C@H](Cc2ccccc2)NC(=O)[C@H](C(C)C)N(C)C(=O)[C@@H](C)N(C)C(=O)C[C@@H](C(=O)N(C)[C@@H](Cc2ccccc2)C(=O)N[C@@H](C)C(=O)N2CCCCC2)NC(=O)[C@H](C)N(C)C(=O)[C@H](CC(C)C)N(C)C1=O [DP-453] ([dNMeA][NMeV]F[NMeL]T[NMeA]I[NMeL][NMeA]D[NMeF]A-Piperidide; lactam N-10) | 25 | 64 |  |  |  |
| CC(C)C[C@H]1C(=O)N[C@H](C(=O)N2CCCCC2)CC(=O)N(C)[C@H](C)C(=O)N(C)[C@@H](Cc2ccccc2)C(=O)N(C)[C@@H](CC(C)C)C(=O)N[C@@H]([C@@H](C)O)C(=O)N(C)[C@@H](C)C(=O)N[C@@H](COC(C)(C)C)C(=O)N1C [DP-682] ([dNMeA][NMeF][NMeL]T[NMeA]S(tBu)[NMeL]D-Piperidide; lactam N-8) | 13 | 20 |  |  |  |
| CC[C@H](C)[C@H]1C(=O)N[C@H](C(=O)N2CCCCC2)CC(=O)N(C)CCCC(=O)N(C)[C@@H](Cc2ccccc2)C(=O)N[C@@H]([C@@H](C)O)C(=O)N(C)CC(=O)N[C@@H](COC(C)(C)C)C(=O)N(C)[C@@H](CC(C)C)C(=O)N(C)[C@@H](CC(C)C)C(=O)N1C [DP-272] ([NMeGABA][NMeF]T[Sar]S(tBu)[NMeL][NMeL][NMeI]D-Piperidide; lactam N-9) | 49 | 82 |  |  |  |
| CC(C)C[C@@H]1NC(=O)[C@H](CC(C)C)NC(=O)[C@H](C)N(C)C(=O)C[C@@H](C(=O)N2CCCCC2)NC(=O)[C@H](C(C)C)N(C)C(=O)[C@H](CC(C)C)NC(=O)[C@H](Cc2ccccc2)NC(=O)[C@H]([C@@H](C)O)NC(=O)CN(C)C(=O)[C@H](CC(C)C)NC(=O)[C@H](C)NC1=O [DP-111] ([NMeA]LLAL[Sar]TFL[NMeV]D-Piperidide; lactam N-11) |  |  | 12 | 17 |  |
| CC[C@H](C)[C@H](NC(=O)[C@H](Cc1ccccc1)NC(=O)[C@@H](NC(=O)[C@@H]1CC(=O)N[C@H](C)C(=O)N(C)[C@@H](CC(C)C)C(=O)N[C@@H]([C@@H](C)O)C(=O)N(C)[C@@H](CC(C)C)C(=O)N(C)[C@@H](Cc2ccccc2)C(=O)N(C)[C@@H](CC(C)C)C(=O)N1)C(C)C)C(=O)N[C@H](C(=O)N1CCCCC1)[C@@H](C)CC [DP-917] ([dA][NMeL]T[NMeL][NMeF][NMeL]DVFII-Piperidide; lactam N-7) |  | 177 |  |  | 1.0E−07 |
| CC(C)C[C@H]1C(=O)N[C@H](C(=O)N(C)[C@@H](Cc2ccccc2)C(=O)N[C@@H](C)C(=O)N2CCCCC2)CC(=O)N(C)[C@@H](C)C(=O)N(C)[C@@H](C)C(=O)N[C@@H](C(C)C)C(=O)N(C)[C@@H](C)C(=O)N(C)[C@@H](Cc2ccccc2)C(=O)N[C@@H]([C@@H](C)O)C(=O)N(C)CC(=O)N(C)[C@@H](C)C(=O)N1C [DP-349] ([NMeA][NMeA]V[NMeA][NMeF]T[Sar][NMeA][NMeL]D[NMeF]A-Piperidide; lactam N-10) | 3.9 | 13 |  |  |  |
| CC[C@H](C)[C@H](NC(=O)[C@@H](NC(=O)[C@H](Cc1ccccc1)NC(=O)[C@@H]1CC(=O)N[C@H](C(C)C)C(=O)N(C)[C@@H](C)C(=O)N(C)[C@@H](CC(C)C)C(=O)N[C@@H]([C@@H](C)O)C(=O)N(C)CC(=O)N(C)[C@@H](Cc2ccccc2)C(=O)N(C)[C@@H](CC(C)C)C(=O)N(C)[C@@H](Cc2cccc(Cl)c2)C(=O)N(C)[C@@H](CC(C)C)C(=O)N[C@@H](C)C(=O)N1)C(C)C)C(=O)N1CCCCC1 [DP-949] ([dV][NMeA][NMeL]T[Sar][NMeF][NMeL][NMePhe(3-Cl)][NMeL]ADFVI-Piperidide; lactam N-11) | 0.11 | 37 |  |  |  |
| CC(C)C[C@@H]1NC(=O)[C@H](CC(C)C)N(C)C(=O)[C@H](C)N(C)C(=O)[C@@H](C(C)C)NC(=O)C[C@@H](C(=O)N2CCCCC2)NC(=O)[C@H](CCC(=O)N(C)C)NC(=O)[C@H](CC(C)C)N(C)C(=O)[C@H](C)N(C)C(=O)[C@H](CC(C)C)N(C)C(=O)[C@H](Cc2ccccc2)NC(=O)[C@H](Cc2ccccc2)N(C)C1=O [DP-618] ([dV][NMeA][NMeL]L[NMeF]F[NMeL][NMeA][NMeL]E(NMe2)D-Piperidide; lactam N-11) | 28 | 39 |  |  |  |
| CC(C)C[C@@H]1NC(=O)[C@H](C)NC(=O)C[C@H](C)NC(=O)[C@H](C(C)C)N(C)C(=O)[C@H](Cc2ccc(C(F)(F)F)cc2)NC(=O)[C@H](CC(C)C)N(C)C(=O)[C@H]([C@@H](C)O)NC(=O)[C@H](Cc2ccc(C(F)(F)F)cc2)NC(=O)[C@H](C)N(C)C(=O)CNC(=O)[C@H](CC(C)C)N(C)C(=O)[C@H](C)N(C)C1=O [DP-814] (cyclo(AL[NMeA][NMeL]G[NMeA][Phe(4-CF3)]T[NMeL][Phe(4-CF3)][NMeV][β3hA])) | 57 | 22 |  |  |  |
| CC(C)C[C@H]1C(=O)N[C@H](C(=O)N(C)[C@@H](Cc2ccccc2)C(=O)N[C@@H](C)C(=O)N2CCCCC2)CC(=O)N(C)[C@H](C)C(=O)N(C)[C@@H](CC(C)C)C(=O)N(C)[C@@H](C)C(=O)N[C@@H]([C@@H](C)O)C(=O)N[C@@H](Cc2ccccc2)C(=O)N(C)[C@@H](Cc2ccccc2)C(=O)N[C@@H](C(C)C)C(=O)N1C [DP-381] ([dNMeA][NMeL][NMeA]TF[NMeF]V[NMeL]D[NMeF]A-Piperidide; lactam N-9) | 45 | 84 |  |  |  |
| CC(C)C[C@H]1C(=O)N[C@H](C(=O)N(C)[C@@H](Cc2ccccc2)C(=O)N[C@@H](C)C(=O)N2CCCCC2)CC(=O)N(C)CCCC(=O)N[C@@H](C(C)C)C(=O)N(C)[C@@H](Cc2ccccc2)C(=O)N(C)[C@@H](CC(C)C)C(=O)N[C@@H]([C@@H](C)O)C(=O)N(C)[C@@H](C)C(=O)N(C)CC(=O)N1C [DP-385] ([NMeGABA]V[NMeF][NMeL]T[NMeA][Sar][NMeL]D[NMeF]A-Piperidide; lactam N-9) | 18 | 102 |  |  |  |
| CC[C@H](C)[C@@H]1NC(=O)[C@H](CC(C)C)N(C)C(=O)CCCN(C)C(=O)C[C@@H](C(=O)N2CCCCC2)NC(=O)[C@H](CC(C)C)N(C)C(=O)[C@H](C)N(C)C(=O)[C@H]([C@@H](C)O)NC(=O)[C@H](CC(C)C)N(C)C(=O)[C@H](COC(C)(C)C)NC(=O)[C@H](Cc2ccccc2)N(C)C(=O)[C@H](Cc2ccccc2)N(C)C1=O [DP-114] ([NMeGABA][NMeL]I[NMeF][NMeF]S(tBu)[NMeL]T[NMeA][NMeL]D-Piperidide; lactam N-11) |  |  | 44 | 56 |  |
| CC[C@H](C)[C@@H]1NC(=O)[C@H](C)N(C)C(=O)[C@@H](C)N(C)C(=O)C[C@H](C)NC(=O)[C@H](CC(C)C)N(C)C(=O)[C@H](C)N(C)C(=O)[C@H](Cc2ccccc2)N(C)C(=O)[C@H]([C@@H](C)O)NC(=O)[C@H](Cc2ccccc2)N(C)C(=O)[C@H](CC(C)C)N(C)C1=O [DP-783] (cyclo(I[NMeL][NMeF]T[NMeF][NMeA][NMeL][β3hA][dNMeA][NMeA])) |  |  | 31 | 269 |  |
| CC[C@H](C)[C@H]1C(=O)N(C)[C@@H](C)C(=O)N(C)[C@@H](CC(C)C)C(=O)N[C@@H](COC(C)(C)C)C(=O)N(C)[C@@H](CC(C)C)C(=O)N[C@@H](C)CC(=O)N(C)[C@@H](C)C(=O)N(C)[C@@H](Cc2ccccc2)C(=O)N[C@@H](C)C(=O)N(C)[C@@H](CC(C)C)C(=O)N[C@@H]([C@@H](C)O)C(=O)N1C [DP-816] (cyclo(A[NMeL]T[NMeI][NMeA][NMeL]S(tBu)[NMeL][β3hA][NMeA][NMeF])) | 32 | 192 |  |  |  |
| CC(C)C[C@@H]1NC(=O)[C@H](CC(C)C)N(C)C(=O)[C@H](Cc2ccccc2)N(C)C(=O)[C@H]([C@@H](C)O)NC(=O)[C@H](CC(C)C)N(C)C(=O)CN(C)C(=O)CCCN(C)C(=O)C[C@@H](C(=O)N2CCCCC2)NC1=O [DP-713] ([NMeGABA][Sar][NMeL]T[NMeF][NMeL]LD-Piperidide; lactam N-8) | 27 | 169 |  |  |  |
| CC(C)C[C@H]1C(=O)N[C@H](C(=O)N2CCCCC2)CC(=O)N(C)[C@H](C)C(=O)N(C)[C@@H](CC(C)C)C(=O)N[C@@H]([C@@H](C)O)C(=O)N(C)CC(=O)N[C@@H](COC(C)(C)C)C(=O)N1C [DP-536] ([dNMeA][NMeL]T[Sar]S(tBu)[NMeL]D-Piperidide; lactam N-7) | 9.9 | 113 |  |  |  |
